These results are taken from patent publication US20120130144A1, “TREATMENT OF LUNG CANCER WITH A NITROBENZAMIDE COMPOUND IN COMBINATION WITH A GROWTH FACTOR INHIBITOR” (BiPar Sciences, Inc., priority 2009, published 2012).

Entries after “also recorded” stand apart in the source; their conditions may differ. Like-named read-outs stand apart in the source and are kept apart here.

One series concerns NSCLC tumors. The following applies: after failure of chemotherapy, cited from earlier work.
Another series deals with chemo-refractory NSCLC. To be noted: phase II, monotherapy, 57 evaluable patients; cited from earlier work.
Another series has as its system NSCLC. To be noted: cited from earlier work.
Series [1] has as its system locally advanced or metastatic pancreatic cancer. To be noted: cited from earlier work.
Series [2] deals with HCC827 non-small cell lung carcinoma cells. As to the kind of experiment: FACS cell cycle analysis by DNA content and BrdU incorporation, Example 1A. Type of series: cell-based. The arrangement: key to Sub-G1 / G1: % of cells in cell cycle phase. The following applies: for BrdU (−) S / G1 / G2/M / S / Sub-G1: HCC827 (NSCLC), GFT 0 nM, 72 hours. The method, then: (§1) HCC827 non-small cell lung carcinoma cells were obtained from ATCC, Rockville, Md. […] Central dose rate of approximately 1.30 Gy/minute (130 rad/minute).
(§2) After the addition of the compounds as described above, irradiation and incubation, cells were trypsinized and aliquots of the samples were taken for counting and PI (Propidium Iodide) exclusion assay. One part of the cells was centrifuged and resuspended in 0.5 ml ice-cold PBS containing 5 ug/ml of PI. The other part of the cells was fixed in ice-cold 70% ethanol and stored in a freezer overnight. For cell cycle analysis, cells were stained with propidium iodide (PI) by standard procedures. Cellular DNA content was determined by flow cytometry using BD LSRII FACS, and the percentages of cells in G1, S or G2/M were determined using ModFit software.
All cell samples were analyzed as described in [5,6] using a BD LSR II or BD Aria (BD Biosciences, San Jose, Calif.). All flow cytometry analyses were carried out using triplicate samples containing at least 30,000 cells each and the final percentages of the cell cycle distribution were normalized to singlets viable cell population, excluding cell debris and polyploid cells according established procedure.
50 μl of BrdU (Sigma Chemical Co., St. Louis, Mo.) stock solution (1 mM) was added to achieve final concentration of 10 μM BrdU. Then cells were incubated for 30 min at 37° C. and fixed in ice-cold 70% ethanol and stored at 4° C. overnight. Fixed cells were centrifuged and washed once in 2 ml PBS, then resuspended in 0.7 ml of denaturation solution (0.2 mg/ml pepsin in 2 N HCl) for 15 min at 37° C. in the dark, then 1.04 ml 1M Tris buffer (Trizma base, Sigma Chemical Co.) was added to terminate the hydrolysis. Cells were washed in 2 ml PBS and resuspended in 100-μ1(1:100 dilution) of anti-BrdU antibody (DakoCytomation, Carpinteria, Calif.) in TBFP permeable buffer (0.5% Tween-20, 1% bovine serum albumin and 1% fetal bovine serum in PBS), incubated for 25 min at room temperature in the dark and washed in 2 ml PBS. The primary antibody-labeled cells were resuspended in 100 μl ALEXA FLUOR® F(ab)2, fragment of goat anti-mouse IgG (H+L) (1:200 dilution, 2 mg/mL, Molecular Probes, Eugene, Oreg.) in TBFP buffer and incubated for 25 min at room temperature in the dark and washed in 2 ml PBS, then resuspended in 0.5 ml ice-cold PBS containing 1 μg/ml 4′,6-diamidino-2-phenylindole (DAPI) for at least 30 min [3, 6].
A general note: Dividing cells build labelled thymidine or BrdU into new DNA.

The test system is the same in series [3]. As to the kind of experiment: Number of vital (proliferating) cells relative to control, Example 1A. The series is classed as cell-based. To be noted: for Live Cell: HCC827 (NSCLC), GFT 0 nM, 72 hours, percentage relative to control. As for the experimental part: as §1
Following treatment, the number of vital cells was measured. Percentage of the vital (proliferating) cells under different treatments was calculated relative to the control (untreated) cells.
as §2

The test system is the same in series [4]. As to the kind of experiment: TUNEL apoptosis detection (FACS), Example 1A. Type of series: cell-based. To be noted: for TUNEL (+): HCC827 (NSCLC), GFT 0 nM, 72 hours.
Excerpt: as §1
The cells were labeled for apoptosis detection with the “In Situ Cell Death Detection Kit, Fluorescein” (Roche Diagnostics Corporation, Roche Applied Science, Indianapolis, Ind.) and analyzed based on the modified protocol from Dr. Darzynkiewicz laboratory. Briefly, fixed cells were centrifuged and washed once in phosphate-buffered saline (PBS) containing 1% bovine serum albumin (BSA), then resuspended in 2 ml permeabilization buffer (0.1% Triton X-100 and 0.1% sodium citrate in PBS) for 25 min at room temperature and washed twice in 0.2 ml PBS/1% BSA. The cells were resuspended in 50 μl TUNEL reaction mixture (TdT enzyme and labeling solution) and incubated for 60 min at 37° C. in a humidified dark atmosphere in an incubator. The labeled cells were washed once in PBS/1% BSA, then resuspended in 0.5 ml ice-cold PBS containing 1 μg/ml 4′,6-diamidino-2-phenylindole (DAPI) for at least 30 min. All cell samples were analyzed with a BD LSR II (BD Biosciences, San Jose, Calif.) and the final percentages of the cell cycle distribution were normalized to singlets viable cell population, excluding cell debris and polyploid cells according established procedure. All flow cytometry analyses were carried out using triplicate samples containing at least 30,000 cells each (typical results of 3 or more independent experiments are shown).

Series [5] relates to HCC827 cells. As to the kind of experiment: CellTiter 96 Aqueous Cell Proliferation Assay (MTS), Example 2. The series is classed as cell-based. To be noted: in combination with BA (100 μM and 50 μM), 72 hours.
The subject of series [6] is HCC827 cells. As to the kind of experiment: Viable cell count / growth of HCC827 cells, Example 1. The series is classed as cell-based. The method, then: Lung adenocarcinoma HCC827 cells are cultured in Dulbecco Modified Eagle Medium with 10% fetal bovine serum. […] Cells are plated at a seeding density 10^5 per P100 or at 10^4 per P60 in growth media and incubated 12-18 h at 37° C., 5% CO2. BA and the EGFR inhibitor, IRESSA, are added as a single dose for 72 hours. DMSO is used as a control. Cells are irradiated with 3Gy and 5Gy gamma-irradiation using γ-Irradiator Gammacell 40 Exactor (MDS Nordion, Canada). Following treatment, cells are analyzed with BrdU ELISA assay (Roche Applied Science), FACS based cell cycle assay or TUNEL.
After the addition of drugs, irradiation and incubation, cells are taken for counting and PI (Propidium Iodide) exclusion assay. One part of the cells is centrifuged and resuspended in 0.5 ml ice-cold PBS containing 5 μg/ml of PI. The other part of the cells is fixed in ice-cold 70% ethanol and stored in a freezer overnight. For cell cycle analysis, cells are stained with propidium iodide (PI) as described hereinabove. Cellular DNA content is determined by flow cytometry using BD LSRII FACS, and the percentages of cells in G1, S or G2/M are determined using ModFit software.

The conditions of series [7]: in vivo; cited from earlier work.
Series [8] concerns HCC827 cells. As to the kind of experiment: TUNEL apoptosis assay (FACS), Example 1. Type of series: cell-based. To be noted: GFT 0 nM, 72 hours.
Protocol: Lung adenocarcinoma HCC827 cells are cultured in Dulbecco Modified Eagle Medium with 10% fetal bovine serum. […] Cells are plated at a seeding density 10^5 per P100 or at 10^4 per P60 in growth media and incubated 12-18 h at 37° C., 5% CO2. BA and the EGFR inhibitor, IRESSA, are added as a single dose for 72 hours. DMSO is used as a control. […] Following treatment, cells are analyzed with BrdU ELISA assay (Roche Applied Science), FACS based cell cycle assay or TUNEL.
To detect apoptosis, the cells are labeled with the “In Situ Cell Death Detection Kit, Fluorescein” (Roche Diagnostics Corporation, Roche Applied Science, Indianapolis, Ind.). Briefly, fixed cells are centrifuged and washed once in phosphate-buffered saline (PBS) containing 1% bovine serum albumin (BSA), then resuspended in 2 ml permeabilization buffer (0.1% Triton X-100 and 0.1% sodium citrate in PBS) for 25 min at room temperature and washed twice in 0.2 ml PBS/1% BSA. The cells are resuspended in 50 μl TUNEL reaction mixture (TdT enzyme and labeling solution) and incubated for 60 min at 37° C. in a humidified dark atmosphere in an incubator. The labeled cells are washed once in PBS/1% BSA, then resuspended in 0.5 ml ice-cold PBS containing 1 μg/ml 4′,6-diamidino-2-phenylindole (DAPI) for at least 30 min. All cell samples are analyzed with a BD LSR II (BD Biosciences, San Jose, Calif.). […]
Series [9] relates to HCC827 cells. As to the kind of experiment: FACS-based cell cycle analysis (PI/BrdU), Example 1. To be noted: GFT 0 nM, 72 hours; for G1 / G2/M / S: percentage of cells.
Protocol: 50 μl of BrdU (Sigma Chemical Co., St. Louis, Mo.) stock solution (1 mM) is added to achieve final concentration of 10 μM BrdU. Then cells are incubated for 30 min at 37° C. and fixed in ice-cold 70% ethanol and stored at 4° C. overnight. Fixed cells are centrifuged and washed once in 2 ml PBS, then resuspended in 0.7 ml of denaturation solution (0.2 mg/ml pepsin in 2 N HCl) for 15 min at 37° C. in the dark, then 1.04 ml 1M Tris buffer (Trizma base, Sigma Chemical Co.) is added to terminate the hydrolysis. Cells are washed in 2 ml PBS and resuspended in 100-μl (1:100 dilution) of anti-BrdU antibody (DakoCytomation, Carpinteria, Calif.) in TBFP permeable buffer (0.5% Tween-20, 1% bovine serum albumin and 1% fetal bovine serum in PBS), incubated for 25 min at room temperature in the dark and washed in 2 ml PBS. The primary antibody-labeled cells are resuspended in 100 μl ALEXA FLUOR® F(ab′)2 fragment of goat anti-mouse IgG (H+L) (1:200 dilution, 2 mg/mL, Molecular Probes, Eugene, Oreg.) in TBFP buffer and incubated for 25 min at room temperature in the dark and washed in 2 ml PBS, then resuspended in 0.5 ml ice-cold PBS containing 1 μg/ml 4′,6-diamidino-2-phenylindole (DAPI) for at least 30 min. All cell samples are analyzed with a BD LSR II (BD Biosciences, San Jose, Calif.). All flow cytometry analyses are carried out using triplicate samples containing at least 30,000 cells each (typical results of independent experiments are shown).
Setting [10] is: Caucasian patients with NSCLC tumors.
Setting [11] is: phase III versus placebo, NSCLC after failed prior chemotherapy.
The mark [12] stands for this setting: combination treatment arm (TARCEVA with gemcitabine).
[13] abbreviates: Homo sapiens, HCC827, 72 h, read-out: Viable Cell.
[14] abbreviates: gefitinib-treated HCC827 cells, FIG. 2c.

Turning to `C#Cc1cccc(Nc2ncnc3cc(OCCOC)c(OCCOC)cc23)c1` [TARCEVA, erlotinib], the major objective responses entry with NSCLC tumors (setting [10]) is “approximately 10%”. For the same compound, in the series with chemo-refractory NSCLC, the “patients achieving disease stabilisation” value is reported as 51% and the “patients surviving for at least 12 months” value is listed as 40%. The “patients affected by rash” value in the series with NSCLC (NSCLC primary registration trial) is recorded as 75%. In the series with NSCLC (clinical trials), the tolerability entry is on record as “generally well tolerated”. In the series on NSCLC (setting [11]), the “improvement in median survival” value is on record as 42% and the “improvement in one-year survival” value is given as 45%. For the same compound, in series [1] (setting [12]), the Median survival is reported as 6.4 months and the one-year survival was 25.6%. The “improvement in overall survival” value in [1] (in combination with gemcitabine, compared with gemcitabine alone) is recorded as 23.5%.

In the case of `NC(=O)c1ccc(I)c(N=O)c1` [BNO, 4-iodo-3-nitrosobenzamide], in [2] (BNO 25 uM), the “BrdU (−) S” value amounted to 1.30, the G1 amounted to 61.10, the G2/M is on record as 7.20 and the S is reported as 29.30. Further, the Sub-G1 in series [2] (BNO 25 uM) was determined as 1.10. Moreover, in series [2] (BNO 50 uM), the “BrdU (−) S” value came out at 3.50, the G1 is reported as 38.74, the G2/M came out at 11.41 and the S came out at 44.24. Also, in [2] (BNO 50 uM), the Sub-G1 amounted to 2.10. In series [3] (BNO 25 uM), the “Live Cell” value was 76. Also, in series [3] (BNO 50 uM), the “Live Cell” value turned out to be 40. Also, the “TUNEL (+)” value in series [4] (BNO 25 uM) was 2.9. Moreover, the “TUNEL (+)” value in series [4] (BNO 50 uM) is listed as 7.7.

As for `COc1cc([C@@H]2c3cc4c(cc3[C@H](O)[C@H]3COC(=O)[C@@H]23)OCO4)cc(OC)c1OC` [PPP, (5R,5aS,8aR,9R)-5,8,8a,9-Tetrahydro-9-hydroxy-5-(3,4,5-trimethoxyphenyl)-furo[3′,′: 6,7]naphtho[2,3-d]-1,3-dio xol-6(5aH)-one], the “effect of BA on antiproliferative effects of growth factor receptors inhibitors” value with HCC827 cells [5] is given as “potentiation of antiproliferative effects”.

Turning to `COc1cc2ncnc(Nc3ccc(F)c(Cl)c3)c2cc1OCCCN1CCOCC1` [GFT, gefitinib], the major objective responses entry in the series on NSCLC tumors (setting [10]) was “approximately 10%”; with NSCLC tumors (Japanese patients with NSCLC tumors) it was 25-30%.

`COC(=O)[C@@]1(O)C[C@H]2O[C@]1(C)n1c3ccccc3c3c4c(c5c6ccccc6n2c5c31)C(=O)NC4` [K252a, (9S-(9α,10β,12α))-2,3,9,10,11,12-hexahydro-10-hydroxy-10-(methoxycarbonyl)-9-methyl-9,12-epoxy-1H-diindolo[1,2,3-fg:3′,2′,1′-kl]pyrrolo[3,4-i][1,6]benzodiazocin-1-one]: the “effect of BA on antiproliferative effects of growth factor receptors inhibitors” value with HCC827 cells [5] is “potentiation of antiproliferative effects”.

Regarding `Nc1ccn([C@@H]2O[C@H](CO)[C@@H](O)C2(F)F)c(=O)n1` [gemcitabine], in [1] (gemcitabine plus placebo), the Median survival was 5.9 months and the one-year survival was 19.7%.

For `NC(=O)c1ccc(I)c([N+](=O)[O-])c1` [BA, 4-iodo-3-nitrobenzamide], the “effect of BA on the activity of gefitinib (IRESSA)” value in the series on HCC827 cells [6] (HCC827 cell line, FIG. 1) is “potentiates the activity of gefitinib; also recorded: potentiates the activity of the EGFR inhibitor, IRESSA”. Moreover, in the series with HCC827 cells [6] (setting [13]), the viability at 50 µM was 65% and the viability at 100 µM is 25%. In [7], the “crossing of the blood-brain barrier” value was “known to cross the blood-brain barrier”; the distribution into tissues entry is “distributes rapidly and widely into tissues, including the brain and cerebrospinal fluid (CSF)”. The “TUNEL (+)” value in the series on HCC827 cells [8] (BA 50 uM) amounted to 5.7. Moreover, in the series on HCC827 cells [8] (BA 100 uM), the “TUNEL (+)” value is listed as 32.8. In series [2] (BA 50 uM), the “BrdU (−) S” value was 1.95, the G1 is reported as 46.26, the G2/M is 8.82 and the S amounted to 40.62. This compound registered a Sub-G1 in series [2] (BA 50 uM) of 2.36. Besides, in [2] (BA 100 uM), the “BrdU (−) S” value was determined as 8.05, the G1 amounted to 43.76, the G2/M was 12.49 and the S worked out at 19.92. In [2] (BA 100 uM), this compound came in with a Sub-G1 of 15.79. In addition, in [2] (gefitinib treated HCC827 cells), the cell cycle arrest entry was “enhanced cell cycle arrest”. Besides, in [2] (setting [14]), the “number of cells in G1 and S phases of cell cycle” value is “reduced number of cells in G1 and S phases”; the “number of dead cells (sub-G1)” value is recorded as “induced number of dead cells (sub-G1)”. Also, in [3] (BA 50 uM), the “Live Cell” value is 65. The “Live Cell” value in series [3] (BA 100 uM) was 25. The “effect of BA on antiproliferative effect of growth factor inhibitors” value in series [3] (HCC827 cells, FIG. 2a-2c) is “potentiates antiproliferative effect of growth factor inhibitors”. Also, the “effect of BA on antitumor activity of gefitinib” value in [3] (non-small lung carcinoma cells) is reported as “potentiates antitumor activity of gefitinib”. Further, the “TUNEL (+)” value in [4] (BA 50 uM) was 5.7. Moreover, the “TUNEL (+)” value in series [4] (BA 100 uM) is 32.8. Besides, the apoptosis entry in series [4] (gefitinib treated HCC827 cells) is “induced apoptosis”. Also, in the series on HCC827 cells [9] (BA 50 uM), the Sub-G1 came to 2.4, the G1 is on record as 46.3, the G2/M was determined as 8.8 and the S was determined as 40.6. In the series with HCC827 cells [9] (BA 100 uM), this compound came in with a Sub-G1 of 15.8, a G1 of 43.8, a G2/M of 12.5 and an S of 19.9.
